In the supplement of paper PMC12463676, “Small-molecule dissolution of stress granules by redox modulation benefits ALS models” (Nature Chemical Biology, 2025):

Legend:
[1] = compound: NC(=O)CCCCC1CCSS1 [lipoamide]; assay: thermal stability z-score vs DMSO; higher = more thermally stabilized by treatment; conditions: HeLa, lipoamide concentration 100 µM
Method: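 Cellular thermal proteome profiling in HeLa cells. Cells were treated with 100 µM lipoamide for 1 h, with or without 1 mM arsenate for a further 1 h, then heated to ten temperatures (37-66.3 °C), and soluble protein was quantified by TMT mass spectrometry relative to 0.1% DMSO controls. The thermal stability score (sum of log2 fold changes minus the abundance score) was transformed to a z-score; mean of n = 3 experiments.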

[2] = compound: O=[As]([O-])(O)O.[K+] [potassium arsenate]; assay: as above; conditions: HeLa; arsenate concentration 1 mM
Method: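 Cellular thermal proteome profiling in HeLa cells treated with 1 mM arsenate for 1 h (DMSO pretreatment), heated to ten temperatures (37-66.3 °C). Soluble protein was quantified by TMT mass spectrometry relative to DMSO controls; the thermal stability score was transformed to a z-score; mean of n = 3 experiments.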

[3] = arsenate co-treatment: 1 mM arsenate 1 h
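Further: each temperature applied for 3 min, abundance score taken as mean log2 fold change at the two lowest temperatures, z-score obtained by mean subtraction and division by SD.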

UniProt Q04656, sequence (Q04656 whole entry): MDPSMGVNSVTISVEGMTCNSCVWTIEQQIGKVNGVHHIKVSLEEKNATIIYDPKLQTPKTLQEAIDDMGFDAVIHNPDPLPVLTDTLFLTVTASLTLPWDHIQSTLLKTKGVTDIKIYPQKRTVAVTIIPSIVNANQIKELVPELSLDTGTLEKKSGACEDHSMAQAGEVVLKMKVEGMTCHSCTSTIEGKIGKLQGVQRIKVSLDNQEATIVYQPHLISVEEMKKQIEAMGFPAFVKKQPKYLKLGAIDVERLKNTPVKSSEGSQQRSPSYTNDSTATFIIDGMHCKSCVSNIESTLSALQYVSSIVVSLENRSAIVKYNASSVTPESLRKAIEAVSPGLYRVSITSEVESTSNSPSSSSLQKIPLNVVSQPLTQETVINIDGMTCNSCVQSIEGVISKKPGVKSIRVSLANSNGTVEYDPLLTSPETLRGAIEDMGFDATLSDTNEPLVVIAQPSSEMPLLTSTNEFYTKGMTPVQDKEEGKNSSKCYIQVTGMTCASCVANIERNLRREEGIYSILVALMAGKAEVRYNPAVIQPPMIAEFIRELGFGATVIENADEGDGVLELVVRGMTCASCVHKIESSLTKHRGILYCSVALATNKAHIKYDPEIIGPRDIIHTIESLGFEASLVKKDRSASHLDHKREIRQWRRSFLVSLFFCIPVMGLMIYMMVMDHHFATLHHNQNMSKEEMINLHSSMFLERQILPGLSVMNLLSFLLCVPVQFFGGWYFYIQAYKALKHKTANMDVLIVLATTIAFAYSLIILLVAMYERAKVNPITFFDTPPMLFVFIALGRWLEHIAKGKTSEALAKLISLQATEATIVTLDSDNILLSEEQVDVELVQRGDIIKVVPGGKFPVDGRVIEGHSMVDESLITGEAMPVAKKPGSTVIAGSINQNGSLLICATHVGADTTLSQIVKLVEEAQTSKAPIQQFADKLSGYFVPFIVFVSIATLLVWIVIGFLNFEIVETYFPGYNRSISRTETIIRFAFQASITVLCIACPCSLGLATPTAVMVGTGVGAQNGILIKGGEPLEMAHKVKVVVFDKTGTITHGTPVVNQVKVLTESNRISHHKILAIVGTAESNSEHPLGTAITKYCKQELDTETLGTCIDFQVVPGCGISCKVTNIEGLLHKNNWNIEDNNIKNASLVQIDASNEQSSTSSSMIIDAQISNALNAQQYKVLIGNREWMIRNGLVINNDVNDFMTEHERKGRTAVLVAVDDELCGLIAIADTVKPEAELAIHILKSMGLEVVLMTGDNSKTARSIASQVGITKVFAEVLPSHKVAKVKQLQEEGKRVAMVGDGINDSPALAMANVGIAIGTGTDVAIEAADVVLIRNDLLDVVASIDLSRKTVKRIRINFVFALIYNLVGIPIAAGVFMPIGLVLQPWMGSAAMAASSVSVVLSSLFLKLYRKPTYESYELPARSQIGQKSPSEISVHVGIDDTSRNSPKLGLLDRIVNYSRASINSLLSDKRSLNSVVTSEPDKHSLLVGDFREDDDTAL
UniProt P61769, sequence (P61769 whole entry): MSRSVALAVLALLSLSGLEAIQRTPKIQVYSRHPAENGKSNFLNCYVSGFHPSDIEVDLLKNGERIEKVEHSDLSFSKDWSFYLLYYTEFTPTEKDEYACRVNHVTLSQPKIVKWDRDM
UniProt O14867, sequence (O14867 whole entry): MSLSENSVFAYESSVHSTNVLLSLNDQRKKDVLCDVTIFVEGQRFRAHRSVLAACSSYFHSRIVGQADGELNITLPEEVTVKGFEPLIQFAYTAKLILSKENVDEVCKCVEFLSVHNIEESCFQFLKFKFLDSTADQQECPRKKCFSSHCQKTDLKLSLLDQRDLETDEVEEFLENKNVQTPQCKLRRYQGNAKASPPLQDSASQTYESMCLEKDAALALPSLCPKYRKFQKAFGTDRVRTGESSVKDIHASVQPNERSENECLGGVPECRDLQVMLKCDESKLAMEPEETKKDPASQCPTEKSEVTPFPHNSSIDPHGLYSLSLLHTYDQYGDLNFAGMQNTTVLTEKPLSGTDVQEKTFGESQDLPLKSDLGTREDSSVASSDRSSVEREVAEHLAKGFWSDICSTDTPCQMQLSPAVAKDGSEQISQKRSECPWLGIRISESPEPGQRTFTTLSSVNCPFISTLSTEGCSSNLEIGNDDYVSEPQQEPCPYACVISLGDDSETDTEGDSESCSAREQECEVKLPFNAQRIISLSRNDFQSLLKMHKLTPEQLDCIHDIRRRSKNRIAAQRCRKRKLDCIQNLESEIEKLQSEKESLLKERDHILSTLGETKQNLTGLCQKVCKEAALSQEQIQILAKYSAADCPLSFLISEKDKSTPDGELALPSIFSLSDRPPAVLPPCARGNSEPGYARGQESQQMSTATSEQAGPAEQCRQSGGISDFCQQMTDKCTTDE
UniProt Q8NBF6, sequence (Q8NBF6 whole entry): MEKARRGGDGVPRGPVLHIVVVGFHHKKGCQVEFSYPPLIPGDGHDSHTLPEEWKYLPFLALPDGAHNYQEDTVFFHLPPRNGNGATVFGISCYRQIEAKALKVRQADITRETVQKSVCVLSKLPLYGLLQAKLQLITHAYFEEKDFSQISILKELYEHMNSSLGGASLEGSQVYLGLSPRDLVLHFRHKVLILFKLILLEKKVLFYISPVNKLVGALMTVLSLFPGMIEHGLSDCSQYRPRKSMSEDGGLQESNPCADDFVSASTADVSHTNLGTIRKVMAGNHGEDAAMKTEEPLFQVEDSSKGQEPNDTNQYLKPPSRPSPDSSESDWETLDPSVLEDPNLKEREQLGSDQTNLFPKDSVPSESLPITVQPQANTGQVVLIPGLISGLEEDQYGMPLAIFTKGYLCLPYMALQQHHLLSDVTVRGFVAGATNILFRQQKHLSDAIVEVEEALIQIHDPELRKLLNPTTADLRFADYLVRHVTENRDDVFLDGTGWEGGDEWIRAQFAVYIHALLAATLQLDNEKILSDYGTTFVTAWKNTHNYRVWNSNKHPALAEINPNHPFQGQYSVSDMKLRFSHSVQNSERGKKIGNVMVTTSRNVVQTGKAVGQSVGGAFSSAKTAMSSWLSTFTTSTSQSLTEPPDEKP
UniProt P15291, sequence (P15291 whole entry): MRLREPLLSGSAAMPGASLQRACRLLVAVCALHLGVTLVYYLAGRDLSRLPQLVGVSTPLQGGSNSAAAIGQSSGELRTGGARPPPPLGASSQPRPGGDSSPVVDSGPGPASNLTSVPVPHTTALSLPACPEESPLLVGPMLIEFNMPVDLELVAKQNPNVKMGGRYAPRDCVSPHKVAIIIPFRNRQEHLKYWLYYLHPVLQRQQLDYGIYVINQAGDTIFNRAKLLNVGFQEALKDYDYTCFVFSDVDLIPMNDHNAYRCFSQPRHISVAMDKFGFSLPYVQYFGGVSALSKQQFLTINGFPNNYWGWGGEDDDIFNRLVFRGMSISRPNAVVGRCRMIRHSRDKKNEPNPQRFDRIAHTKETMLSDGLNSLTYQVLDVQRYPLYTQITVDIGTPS
UniProt Q9Y5Z0, sequence (Q9Y5Z0 whole entry): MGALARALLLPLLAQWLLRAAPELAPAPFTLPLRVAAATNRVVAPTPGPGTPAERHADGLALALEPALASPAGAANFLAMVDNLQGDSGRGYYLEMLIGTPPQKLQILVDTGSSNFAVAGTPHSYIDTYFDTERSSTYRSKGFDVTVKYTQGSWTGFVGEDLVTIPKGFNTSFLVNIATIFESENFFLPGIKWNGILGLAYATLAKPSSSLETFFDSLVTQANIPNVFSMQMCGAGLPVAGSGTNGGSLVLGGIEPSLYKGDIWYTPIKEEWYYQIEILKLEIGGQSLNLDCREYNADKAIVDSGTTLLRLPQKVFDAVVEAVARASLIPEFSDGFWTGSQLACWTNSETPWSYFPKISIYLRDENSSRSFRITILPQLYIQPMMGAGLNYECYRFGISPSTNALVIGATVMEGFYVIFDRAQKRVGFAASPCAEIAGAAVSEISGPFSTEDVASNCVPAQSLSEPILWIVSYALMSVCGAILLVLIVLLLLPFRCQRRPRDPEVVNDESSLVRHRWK
UniProt Q9Y679, sequence (Q9Y679 whole entry): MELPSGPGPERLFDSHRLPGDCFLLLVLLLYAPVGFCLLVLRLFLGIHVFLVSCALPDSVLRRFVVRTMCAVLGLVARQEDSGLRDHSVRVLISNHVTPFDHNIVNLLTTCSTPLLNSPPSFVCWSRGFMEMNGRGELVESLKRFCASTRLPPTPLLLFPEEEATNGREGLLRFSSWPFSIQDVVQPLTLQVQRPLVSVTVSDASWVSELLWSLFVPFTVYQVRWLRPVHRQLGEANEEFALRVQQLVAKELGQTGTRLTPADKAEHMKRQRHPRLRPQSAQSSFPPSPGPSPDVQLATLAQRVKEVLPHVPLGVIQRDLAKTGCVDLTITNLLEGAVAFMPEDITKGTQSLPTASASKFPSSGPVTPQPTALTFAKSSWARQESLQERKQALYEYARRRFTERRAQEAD
UniProt Q5TC12, sequence (Q5TC12 whole entry): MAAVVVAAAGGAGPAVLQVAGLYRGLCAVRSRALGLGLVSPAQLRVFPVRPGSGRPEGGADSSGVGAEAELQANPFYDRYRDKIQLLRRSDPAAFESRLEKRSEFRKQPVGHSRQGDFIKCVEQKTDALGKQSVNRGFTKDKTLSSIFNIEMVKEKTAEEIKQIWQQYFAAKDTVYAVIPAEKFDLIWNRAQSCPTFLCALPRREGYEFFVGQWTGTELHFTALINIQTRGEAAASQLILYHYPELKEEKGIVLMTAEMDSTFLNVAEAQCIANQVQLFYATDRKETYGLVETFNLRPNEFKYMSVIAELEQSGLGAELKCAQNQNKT
UniProt O75947, sequence (O75947 whole entry): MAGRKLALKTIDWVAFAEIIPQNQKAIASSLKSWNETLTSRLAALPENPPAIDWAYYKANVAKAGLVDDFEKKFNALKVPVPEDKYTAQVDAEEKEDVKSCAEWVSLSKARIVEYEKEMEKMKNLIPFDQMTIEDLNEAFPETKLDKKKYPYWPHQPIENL
UniProt P56134, sequence (P56134 whole entry): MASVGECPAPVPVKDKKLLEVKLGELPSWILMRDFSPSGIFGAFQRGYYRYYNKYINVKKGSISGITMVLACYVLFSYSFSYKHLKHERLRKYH
UniProt P56381, sequence (P56381 whole entry): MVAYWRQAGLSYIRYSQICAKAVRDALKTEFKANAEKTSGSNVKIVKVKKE

Target	thermal stability z-score [1, 3]	thermal stability z-score ([1]; arsenate co-treatment: none)	thermal stability z-score [2]
ATP5E (UniProt P56381)	0.582	0.508	0.00933
ATP5F1 (UniProt P24539)	-0.648	-0.133	0.226
ATP5H (UniProt O75947)	0.72	0.597	0.504
ATP5J2 (UniProt P56134)	0.46	0.37	-0.0845
ATP5J (UniProt P18859)	2.44	1.93	1.53
ATP5L (UniProt O75964)	0.758	-1.18	0.595
ATP5O (UniProt P48047)	0.0702	-0.283	-0.119
ATP6AP1 (UniProt Q15904)	-0.952	-0.601	0.569
ATP6AP2 (UniProt O75787)	-2.63	-2.3	-0.366
ATP6V0A1 (UniProt Q93050)	0.0809	0.332	0.705
ATP6V0A2 (UniProt Q9Y487)	-0.105	0.146	-0.424
ATP6V0D1 (UniProt P61421)	-0.621	-0.115	-0.134
ATP6V1A (UniProt P38606)	-0.368	-0.529	-0.613
ATP6V1B2 (UniProt P21281)	-0.0948	-0.684	-0.745
ATP6V1C1 (UniProt P21283)	-0.136	0.0202	0.132
ATP6V1D (UniProt Q9Y5K8)	0.546	0.0685	-0.425
ATP6V1E1 (UniProt P36543)	0.0691	-0.201	0.637
ATP6V1G1 (UniProt O75348)	0.563	0.473	0.295
ATP6V1H (UniProt Q9UI12)	0.0391	-0.146	-0.0897
ATP7A (UniProt Q04656)	-0.29	-0.175	-0.674
ATP9A (UniProt O75110)	0.482	0.278	-0.569
ATP11A (UniProt P98196)	-0.441	0.419	-0.309
ATP11B (UniProt Q9Y2G3)	0.0989	-0.588	-1.03
ATP11C (UniProt Q8NB49)	-0.348	0.254	-1.13

Target	thermal stability z-score [1, 3]	thermal stability z-score ([1]; arsenate co-treatment: none)	thermal stability z-score [2]
ATP13A1 (UniProt Q9HD20)	-0.0204	0.186	-0.277
ATP13A3 (UniProt Q9H7F0)	-0.563	0.206	0.165
ATPAF1 (UniProt Q5TC12)	-0.471	-0.084	-0.64
ATPAF2 (UniProt Q8N5M1)	-0.263	-0.0435	-0.318
ATPIF1 (UniProt Q9UII2)	0.646	0.505	-0.206
ATR (UniProt Q13535)	-0.0437	0.124	-0.568
ATRAID (UniProt Q6UW56)	-2.95	-2.55	0.451
ATRIP (UniProt Q8WXE1)	0.275	-0.148	-0.137
ATRN (UniProt O75882)	0.622	-0.532	0.705
ATRX (UniProt P46100)	-0.0326	0.195	-0.0925
ATXN2 (UniProt Q99700)	0.168	0.133	-0.245
ATXN2L (UniProt Q8WWM7)	0.44	0.347	-0.118
ATXN3 (UniProt P54252)	0.199	0.278	-0.115
ATXN10 (UniProt Q9UBB4)	0.258	0.374	-1.03
AUH (UniProt Q13825)	-0.0558	0.0366	0.0655
AUP1 (UniProt Q9Y679)	-0.649	-1.09	-0.628
AURKA (UniProt O14965)	-0.091	-0.269	-0.391
AVEN (UniProt Q9NQS1)	0.134	-0.00487	-0.823
AVL9 (UniProt Q8NBF6)	0.0764	0.143	0.203
AXL (UniProt P30530)	0.0102	0.0513	0.0984
AZIN1 (UniProt O14977)	0.745	0.806	0.62
B2M (UniProt P61769)	-0.115	-0.125	1.06
B3GALNT2 (UniProt Q8NCR0)	-0.788	-0.394	-1.27
B3GAT3 (UniProt O94766)	-0.54	-0.00376	0.0971

Target	thermal stability z-score [1, 3]	thermal stability z-score ([1]; arsenate co-treatment: none)	thermal stability z-score [2]
B3GLCT (UniProt Q6Y288)	-0.669	-1.54	0.968
B4GALT1 (UniProt P15291)	-0.454	-0.565	0.0478
B4GALT4 (UniProt O60513)	-0.0137	-0.101	0.252
B4GALT5 (UniProt O43286)	-0.000852	-0.338	-0.0207
B4GAT1 (UniProt O43505)	-0.309	-0.831	0.0622
BABAM1 (UniProt Q9NWV8)	0.196	0.129	-0.323
BACE2 (UniProt Q9Y5Z0)	-0.766	-0.974	1.09
BACH1 (UniProt O14867)	-0.551	-0.333	0.169
BAG1 (UniProt Q99933)	-0.351	0.0085	-0.464
BAG2 (UniProt O95816)	0.187	0.292	-0.106
BAG3 (UniProt O95817)	-0.145	0.303	0.236
BAG4 (UniProt O95429)	0.25	0.752	0.76
BAG5 (UniProt Q9UL15)	0.228	0.437	-0.198
BAIAP2 (UniProt Q9UQB8)	0.142	0.0757	-0.138
BAIAP2L1 (UniProt Q9UHR4)	0.0217	-0.166	0.177
BANF1 (UniProt O75531)	0.324	-0.358	-2.36
BASP1 (UniProt P80723)	0.861	0.592	-0.142
BAT3|BAG6	-0.102	-0.0326	0.518
BAX (UniProt Q07812)	0.343	1.42	1.46
BAZ1A (UniProt Q9NRL2)	-0.258	0.0591	-0.236
BAZ1B (UniProt Q9UIG0)	-0.152	-0.073	0.21
BBX (UniProt Q8WY36)	-0.177	-0.12	-0.402
BCAP29 (UniProt Q9UHQ4)	0.262	0.211	-0.458
